We go through four molecules from paper PMC2359721 (British Journal of Cancer, 2007).

Data set [1] concerns gefitinib-resistant kinases. Further details: method as in Carter et al, 2005; Kwak et al, 2005. The following applies: preclinical studies, ref Carter et al, 2005, Kwak et al; cited from earlier work.
Data set [2] concerns A431, MDA-MB-453, NCI-N87 gastric and SKOV-3 ovarian xenografts. More on the design: method as in Boehringer-Ingelheim, data on file. The settings on record: oral, ref Boehringer-Ingelheim, data on file, cited from earlier work.
For data set [3] the following is noted: minipig, in vivo; cited from earlier work.
The subject of another data set is epidermal keratinocytes. Put plainly: Pharmacodynamics in paired skin biopsies (immunohistochemistry). The settings on record: on therapy day 14 cycle 1, all dose levels pooled, 36 paired biopsies; pretreatment 14.0±4.5%; P<0.0001. Type of data set: in vivo, human.
A further data set addresses C-SRC. The following applies: at concentrations 100- to 1000-fold higher; ref Boehringer-Ingelheim, data on file; cited from earlier work.
For data set [4], the system named is advanced solid tumours. The following applies: cited from earlier work.
A short description of data set [5]: Plasma pharmacokinetics in patients (HPLC-MS/MS, noncompartmental). The settings on record: for CL/F / Vd/F / half-life / AUC(0-t) / Cmax / Tmax: human, plasma, oral.
The target in data set [6] is vascular endothelial growth factor 2. The settings on record: at concentrations 100- to 1000-fold higher; ref Boehringer-Ingelheim, data on file; cited from earlier work.
Data set [7] can be described thus: Phase I safety, DLT and MTD, OD 14 days on / 14 days off. Type of data set: in vivo. The procedure:
Tablets were taken 1 h before breakfast. A cycle was defined as 14 days on treatment followed by 14 days off medication. […] The starting dose corresponded with one-fifth of the toxic dose low in rats, the most sensitive species. The dose for successive cohorts was doubled until observation of drug-related AE grade ⩾2 according to common toxicity criteria v3.0 in one or more patients in the first cycle. Thereafter escalation steps were ⩽50%. Should DLT be observed in one out of six patients and dose escalation continued, escalation steps were ⩽35%. Initially, three patients were treated per dose level. If one patient experienced drug-related DLT, three additional patients were treated. When no further patient experienced DLT, the dose was escalated. When ⩾2/6 patients experienced DLT, three additional patients were treated 1 dose tier below unless six had already been treated there.
Maximum tolerated dose was defined as the highest dose with ⩽1/6 patients experiencing DLT during cycle 1. Dose-limiting toxicity was defined as grade 3 or 4 nonhaematological toxicity except untreated nausea, vomiting, or diarrhoea; grade 4 haematological toxicity; grade 3 diarrhoea, nausea, or vomiting despite supportive care; need for loperamide for ⩾7 days to treat or prevent grade ⩾2 diarrhoea; need for continuous administration of 5HT-3 antagonists or dexamethasone to treat or prevent grade ⩾2 nausea or vomiting; occurrence of grade ⩾2 cardiac left ventricular function or renal toxicity. In the absence of DLT or disease progression, patients received six cycles and were allowed to continue in an extension protocol. Intrapatient dose escalation was not allowed. The study was approved by local Ethics Committees, and all patients provided written informed consent.
(§1) Prior to therapy, medical history taking and physical examination were performed. A complete blood cell count (CBC), white blood cell (WBC) differential and serum biochemistry were performed, as were urinalysis, electrocardiogram, MUGA scanning and, chest X-ray. Weekly evaluations during cycles 1 and 2 and every other week thereafter included physical examination, AE assessment, CBC, WBC differential and serum chemistry including renal function. Tumour measurements and MUGA scanning were performed every other cycle. Response was assessed using RECIST ([Therasse et al, 2000]).

In data set [8] the test system is advanced solid tumours. The data set is described as follows: Antitumour activity (RECIST). Type of data set: in vivo, human. The procedure:
as §1

For the next data set, the system named is EGFR phosphorylation. Further details: method as in Torrance et al, 2000. The settings on record: xenograft model; ref Torrance et al, 2000; cited from earlier work.
Details of data set [9]: method as in Torrance et al, 2000. The settings on record: ref Torrance et al, 2000; cited from earlier work.

For the molecule `C=CC(=O)Nc1cc2c(Nc3ccc(F)c(Cl)c3)ncnc2cc1OCCCN1CCOCC1` [CI-1033], in data set [1], the “inhibition of gefitinib-resistant kinases” value is “inhibition”.

In the case of `CN(C)C/C=C/C(=O)Nc1cc2c(Nc3ccc(F)c(Cl)c3)ncnc2cc1O[C@H]1CCOC1` [BIBW 2992], in data set [2] (mice with A431, MDA-MB-453, NCI-N87 gastric, SKOV-3 ovarian models), the tumour regression entry is “induced tumour regression”. In addition, the “plasma concentrations at which tumour regression was induced” value in data set [2] (xenograft models in mice) is 80 to 280 nM. For the same molecule, in [3], the “organs in which toxicity occurred” value is reported as “gastrointestinal tract”. Moreover, the “percentage Ki-67-positive cells (means±s.d.)” value in the data set with epidermal keratinocytes was found to be 7.9±4.5%. At C-SRC, the kinase inhibition result is “not inhibited”. In addition, the “patients with partial tumour responses” value with advanced solid tumours [4] (adenocarcinoma of the lung, ref Shaw et al, 2006) is given as “two”. Further, in the data set on advanced solid tumours [4] (preliminary data from ⩾120 patients, ref Agus et al, 2006, Shaw et al), the “LVEF changes in additional trials” value is “not indicated significant LVEF changes”. For the same molecule, in data set [5] (OD dosing), the “time to reach steady state” value is reported as no more than 8 days. In data set [5], this molecule yielded a CL/F of 383 to 1390 mL/min, a Vd/F of 1250 to 4760 L and a half-life of 28 to 43 h. Also, in [5] (10 mg), the AUC(0-t) came out at 199 ng·h/mL, the apparent clearance CL/F was found to be 839 mL/min, the maximum concentration (Cmax) was 14.1 ng/mL and the Tmax stood at 2.98 h. Further, in data set [5] (10 mg), the Vd/F is 2610 L and the half-life was 35.9 h. In [5] (20 mg), the AUC(0-t) stood at 241 ng·h/mL, the CL/F turned out to be 1390 mL/min, the highest level (Cmax) was 16.2 ng/mL and the Tmax was found to be 4 h. In data set [5] (20 mg), the Vd/F came out at 4760 L and the half-life was 39.7 h. Also, in data set [5] (30 mg), the area under the curve AUC(0-t) turned out to be 1310 ng·h/mL, the CL/F turned out to be 383 mL/min, the peak level (Cmax) was 111 ng/mL and the time of peak concentration (Tmax) turned out to be 0.95 h. In data set [5] (30 mg), this molecule gave a Vd/F of 1250 L and a half-life of 37.7 h. Moreover, in data set [5] (45 mg), the AUC(0-t) was determined as 840 ng·h/mL, the CL/F was found to be 893 mL/min, the maximum concentration (Cmax) worked out at 68.4 ng/mL and the Tmax was 3 h. In data set [5] (45 mg), the Vd/F was found to be 3350 L and the half-life is 43.4 h. Further, in data set [5] (70 mg), the area under the curve AUC(0-t) was 2620 ng·h/mL, the apparent clearance (CL/F) was found to be 445 mL/min, the Cmax stood at 180 ng/mL and the Tmax is 2 h. In [5] (70 mg), the Vd/F stood at 1530 L and the half-life was 39.6 h. Besides, in [5] (85 mg), the AUC(0-t) was 2340 ng·h/mL, the CL/F is 604 mL/min, the Cmax is 163 ng/mL and the Tmax amounted to 2 h. Besides, in data set [5] (85 mg), the Vd/F worked out at 1610 L and the half-life was 30.8 h. Also, in data set [5] (100 mg), the exposure AUC(0-t) is 2750 ng·h/mL, the CL/F turned out to be 606 mL/min, the peak level (Cmax) was 234 ng/mL and the time to peak (Tmax) worked out at 1 h. In data set [5] (100 mg), this molecule gave a Vd/F of 1500 L and a half-life of 28.6 h. The kinase inhibition result in [6] is “not inhibited”. In data set [7] (OD 14 days on, 14 days off), this molecule registered a Maximum tolerated dose of 70 mg. Also, the “recommended dose (phase 2)” value in data set [7] (OD, 14-day on, 14-day off schedule) is 70 mg. In addition, in data set [7] (human, in vivo), the incidence of diarrhoea was 84%; the “incidence of gastrointestinal AE” value is 92%; the onset of diarrhoea is no more than 7 days; the “overall incidence of rash, acne and dry skin” value is on record as 95%. For the same molecule, in [7] (human, in vivo), the “patients with grade 1 anemia” value was found to be 6 patients; the “patients with mild fatigue” value came out at 24 patients; the “patients with mild gastrointestinal AE (diarrhoea, nausea, vomiting)” value was 35 patients; the “patients with self-limiting epistaxis” value is 20 patients. Further, in data set [7] (in vivo), the “DLT observed in cycle 1, initial 70 mg cohort” value is on record as “one”; the “patients with LVEF reduction” value was “Two”; the “patients with grade 1 thrombocytopaenia” value was “two”; the “patients with grade 2 ALT” value was “three”. Also, in [7] (in vivo), the “patients with grade 2 AST” value is given as “four”, the “patients with grade 2 alkaline phosphatase” value is on record as “five” and the “patients with grade 2 bilirubin” value was “two”. The objective response result with advanced solid tumours [8] (38 patients, 10–100 mg) is “No partial or complete responses”. In the data set with advanced solid tumours [8] (all treated at doses of ⩾45 mg), the “patients with minor tumour regressions” value is “Eight”. Further, in the data set with advanced solid tumours [8] (patients with stable disease ⩾4 cycles), the “median number of cycles in patients with stable disease” value is 6 (range 5–9) cycles. The “patients with stable disease lasting ⩾4 cycles” value in the data set with advanced solid tumours [8] (various tumour types) was “seven”.

Take `CCOc1cc2ncc(C#N)c(Nc3ccc(F)c(Cl)c3)c2cc1NC(=O)/C=C/CN(C)C` [EKB-569]: the “duration of inhibition of EGFR phosphorylation” value in the data set with EGFR phosphorylation is recorded as greater than 24 h. The plasma half-life in [9] is on record as 2 h. The “inhibition of gefitinib-resistant kinases” value in [1] is “inhibition”.

With `CCOc1cc2ncc(C#N)c(Nc3ccc(OCc4ccccn4)c(Cl)c3)c2cc1NC(=O)/C=C/CN(C)C` [HKI-272], the “inhibition of gefitinib-resistant kinases” value in data set [1] was “inhibition”.
